# Measured values from patent US10039761B2, “Co-crystals and pharmaceutical compositions comprising the same” (Vertex Pharmaceuticals Incorporated, priority 2013, dated 2018).
# Columns and labels:
# [1] = system: OD26749 primary NSCLC xenograft; experiment: OD26749 primary NSCLC xenograft efficacy with whole body IR; type: in vivo, nude mice
# Experimental: The in vivo efficacies of Compounds (1) and (2) in combination with whole body IR were examined in the OD26749 primary NSCLC (non-small cell lung cancer) and the OE-19 GEJ cell line xenograft models. In these studies, Compounds (1) and (2) were formulated with 16% captisol/1% PVP/1% HPMC E5 pH2.
# The in vivo efficacy of Compound (1) was evaluated in the primary OD26749 NSCLC subcutaneous xenograft model. […] […] Compound (1) was administered PO (tid at 0, 3, and 7 h) at 100 mg/kg alone or with a single 2 Gy dose of whole body IR at 3.25 h. […] Compound (1) in combination with 2 Gy whole body IR induced significant tumor regression (% T/Ti of −75; P<0.01) compared to IR alone.
# The efficacies of Compounds (1) and (2) in combination with whole body IR (2 Gy) were evaluated in the OD26749 primary NSCLC xenograft model at a Compound ([…]) and Compound (2) dose levels of 50 mg/kg and 100 mg/kg PO bid (0 and 4 h). Two cycles of whole body IR (2 Gy) were given 15 min after the first compound administration (0.25 hour). Control animals were administered vehicle PO bid (0 and 4 h). […]
# (§1) In Tables 14 and 15, for example, PO bid (0, 4 h) indicates Compound (2) is administered twice (bid) at time point 0 and then 4 hours after; IR (0.25 h) qdx3 indicates radiation is administered 15 minutes (0.25 h) after the administration of Compound (2) (0 h), and once a day for 3 days (qdx3); q7dx2 indicates once a week for two weeks; qod indicates every other day twice (e.g., Day 1 and Day 3); and paclitaxel q7dx3 (−0.25 h), carboplatin q7dx3 (−0.25 h) indicates administration of paclitaxel and carboplatin 15 minutes prior to the administration of Compound (2), followed by additional administration of Compound (2) after 4 hours after the first administration of Compound (2).
# [2] = Blood exposure in OD26749 bridging study; type: in vivo, nude mice; conditions: nude, mouse, whole blood; 100 mg/kg PO bid (0 and 4 h) combination groups with 2 Gy whole body IR
# [3] = system: LU-01-0030 primary NSCLC subcutaneous xenograft; experiment: LU-01-0030 primary NSCLC xenograft efficacy with focused IR; type: in vivo, mice
# Experimental: (§2) The in vivo efficacies of Compounds (1) and (2) were evaluated alone and in combination with three consecutive days of focused IR in the primary LU-01-0030 NSCLC subcutaneous xenograft model. The dose-dependent anti-tumor activity of Compound (2) alone and in combination with focused beam IR was evaluated in the LU-01-0030 model.
# as §1
# [4] = Body weight in LU-01-0030 xenograft studies; type: in vivo, mice
# Experimental: as §2, with “LU-01-0030 model. […] Mice in the combination treatment groups were monitored (without treatment) for up to 90 days as some mice had no evidence of tumor burden.” for “LU-01-0030 model.”
# [5] = Body weight in OE-19 xenograft studies; type: in vivo
# Experimental: The OE-19 cell line xenograft model was used to evaluate the efficacy of Compounds (1) and (2) alone and in combination with IR. Two cycles of treatment were administered (Day 0 and Day 7) as performed in the OD26749 model above.
# [6] = system: ST-02-0004 primary GEJ tumor xenograft; experiment: ST-02-0004 primary GEJ tumor xenograft efficacy with focused IR; type: in vivo
# Experimental: The in vivo activities of Compounds (1) and (2) were compared in combination with focused beam IR in a primary gastric cancer subcutaneous xenograft model. In the ST 02 0004 model, focused IR was administered on three consecutive days alone and in combination with Compound (1) or Compound (2).
# The anti-tumor activity of Compound (2) in combination with focused-beam IR and the standard of care agents, paclitaxel and carboplatin, was also evaluated in the ST 02 0004 model. Treatment with paclitaxel, carboplatin, and IR was administered once per week for three weeks alone or in combination with Compound (2).
# as §1
# primary human tumors = experiment: Primary tumor chemosensitivity assay (TCA), Cell Titer-Glo, Bliss; type: cell-based
# Experimental: Primary human tumors tested in vitro may provide a better indicator of efficacy of DNA PK inhibition than immortalized cancer cell lines due to their increased heterogeneity and closer proximity to the patient tumor from which they were derived. […] Dissociated cells from mouse-passaged tumors were cultured for 6 days after combination exposure and then assessed for viability using the Cell Titer-Glo assay. The Bliss Additivity statistical model was used to determine the degree of synergy, additivity, or antagonism of each combination treatment.
# [7] = Body weight in OD26749 xenograft studies; type: in vivo, nude mice; conditions: bridging study; Compound (1) PO 100 mg/kg bid (0, 4 h), 2 Gy ([…]) qdx3; Day 1
structure (smiles),measurement,setting,value
"CNC(=O)c1ccnc2c([C@H](C)CNc3cc(-c4cnc(C)nc4)ncn3)cccc12 [Compound (1), (S)-N-methyl-8-(1-((2′-methyl-[4,5′-bipyrimidin]-6-yl)amino)propan-2-yl)quinoline-4-carboxamide]",time to tumor doubling (TTD),"[1]; Compound (1) single agent group, 100 mg/kg tid, twice one week apart",2 to 3 days
same,% T/C (Day 29),"[1]; PO 50 mg/kg bid (0, 4 h), 2 Gy IR ([…]) q7dx2",11.7%
same,% T/Ti (Day 29),"[1]; PO 100 mg/kg bid (0, 4 h), 2 Gy IR ([…]) q7dx2",−3.1%
same,% T/Ti (Day 16),"[1]; PO 100 mg/kg tid (0, 3, 7 h) q7dx2, 2 Gy q7dx2 (3.25 h) whole body IR",−75%
same,% T/C (Day 16),"[1]; PO 100 mg/kg tid (0, 3, 7 h) q7dx2, no IR",74%
same,time to tumor doubling (TTD),"[1]; combination group: 100 mg/kg tid with 2 Gy whole body IR, given twice one week apart",33.4 days
same,AUC,[2],65800 ng·h/mL
same,% T/Ti (Day 31),"[3]; PO 10 mg/kg bid (0, 4 h) qdx3, 2 Gy IR ([…])",−5.3%
same,% T/Ti (Day 24),"[3]; PO 10 mg/kg bid (0, 4 h) qdx3, 2 Gy IR qdx3 ([…])",−29.8%
same,% T/Ti (Day 24),"[3]; PO 25 mg/kg bid (0, 4 h) qdx3, 2 Gy IR qdx3 ([…])",−75.2%
same,% T/C (Day 31),"[3]; PO 50 mg/kg bid (0, 4 h) qdx1, 2 Gy IR ([…])",7.2%
same,% T/Ti (Day 31),"[3]; PO 50 mg/kg bid (0, 4 h) qdx2, 2 Gy IR ([…])",−1.7%
same,% T/Ti (Day 31),"[3]; PO 50 mg/kg bid (0, 4 h) qdx3, 2 Gy IR ([…])",−14.1%
same,% T/Ti (Day 24),"[3]; PO 50 mg/kg bid (0, 4 h) qdx3, 2 Gy IR qdx3 ([…])",−87.6%
same,% T/Ti (Day 24),"[3]; PO 50 mg/kg bid (0, 4 h) qodx2, 2 Gy IR qdx3 ([…])",−79.9%
same,% T/C (Day 31),"[3]; PO 50 mg/kg qdx3, 2 Gy IR ([…])",4.5%
same,% T/Ti (Day 30),"[3]; PO 100 mg/kg bid (0, 4 h) qdx3, 2 Gy IR ([…]) qdx3",−85.6%
same,% T/Ti (Day 30),"[3]; PO 100 mg/kg tid (0, 3, 7 h) qdx3, 2 Gy IR ([…]) qdx3",−90.6%
same,% T/Ti (Day 30),"[3]; PO 100 mg/kg tid (0, 3, 7 h) qdx5, 2 Gy IR ([…]) qdx3",−91.6%
same,% T/C (Day 30),"[3]; PO 100 mg/kg tid (0, 3, 7 h) qdx5, no IR",79.1%
same,% T/Ti (Day 27),"[3]; first Day 27 study, PO 25 mg/kg bid (0, 4 h) qdx3, 2 Gy ([…]) IR qdx3",−80.3%
same,% T/Ti (Day 27),"[3]; first Day 27 study, PO 50 mg/kg bid (0, 4 h) qdx3, 2 Gy ([…]) IR qdx3",−87.8%
same,% T/Ti (Day 27),"[3]; first Day 27 study, PO 100 mg/kg bid (0, 4 h) qdx3, 2 Gy ([…]) IR qdx3",−90.1%
same,% T/Ti (Day 27),"[3]; first Day 27 study, PO 100 mg/kg qdx3, 2 Gy ([…]) IR qdx3",−76.5%
same,% T/Ti (Day 27),"[3]; second Day 27 study, PO 10 mg/kg bid (0, 4 h) qdx3, 2 Gy ([…]) IR qdx3",−80.3%
same,% T/Ti (Day 27),"[3]; second Day 27 study, PO 25 mg/kg bid (0, 4 h) qdx3, 2 Gy ([…]) IR qdx3",−87.8%
same,% T/Ti (Day 27),"[3]; second Day 27 study, PO 50 mg/kg bid (0, 4 h) qdx2, 2 Gy ([…]) IR qdx3",−90.1%
same,% T/Ti (Day 27),"[3]; second Day 27 study, PO 50 mg/kg bid (0, 4 h) qdx3, 2 Gy ([…]) IR qdx3",−76.5%
same,Max. body wt loss (%),"[4]; Day 24 study, PO 10 mg/kg bid (0, 4 h) qdx3, 2 Gy IR qdx3 ([…]), Day 4",−1.46%
same,Max. body wt loss (%),"[4]; Day 24 study, PO 25 mg/kg bid (0, 4 h) qdx3, 2 Gy IR qdx3 ([…]), Day 4",−2.03%
same,Max. body wt loss (%),"[4]; Day 24 study, PO 50 mg/kg bid (0, 4 h) qdx3, 2 Gy IR qdx3 ([…]), Day 4",−1.19%
same,Max. body wt loss (%),"[4]; Day 24 study, PO 50 mg/kg bid (0, 4 h) qodx2, 2 Gy IR qdx3 ([…]), Day 4",−1.59%
same,Max. body wt loss (%),"[4]; Day 30 study, PO 100 mg/kg bid (0, 4 h) qdx3, 2 Gy IR ([…]) qdx3, Day 4",−1.42%
same,Max. body wt loss (%),"[4]; Day 30 study, PO 100 mg/kg tid (0, 3, 7 h) qdx3, 2 Gy IR ([…]) qdx3, Day 4",−1.58%
same,Max. body wt loss (%),"[4]; Day 30 study, PO 100 mg/kg tid (0, 3, 7 h) qdx5, 2 Gy IR ([…]) qdx3, Day 4",−1.68%
same,Max. body wt loss (%),"[4]; Day 30 study, PO 100 mg/kg tid (0, 3, 7 h) qdx5, no IR, Day 6",−0.63%
same,Max. body wt loss (%),"[4]; Day 31 study, PO 10 mg/kg bid (0, 4 h) qdx3, 2 Gy IR ([…]), Day 3",−3.33%
same,Max. body wt loss (%),"[4]; Day 31 study, PO 50 mg/kg bid (0, 4 h) qdx1, 2 Gy IR ([…]), Day 1",−0.59%
same,Max. body wt loss (%),"[4]; Day 31 study, PO 50 mg/kg bid (0, 4 h) qdx2, 2 Gy IR ([…]), Day 1",−2.11%
same,Max. body wt loss (%),"[4]; Day 31 study, PO 50 mg/kg bid (0, 4 h) qdx3, 2 Gy IR ([…]), Day 3",−0.94%
same,Max. body wt loss (%),"[4]; Day 31 study, PO 50 mg/kg qdx3, 2 Gy IR ([…]), Day 1",−2.07%
same,Max. body wt loss (%),"[4]; first Day 27 study, PO 25 mg/kg bid (0, 4 h) qdx3, 2 Gy ([…]) IR qdx3, Day 2",−5.81%
same,Max. body wt loss (%),"[4]; first Day 27 study, PO 50 mg/kg bid (0, 4 h) qdx3, 2 Gy ([…]) IR qdx3, Day 3",−5.70%
same,Max. body wt loss (%),"[4]; first Day 27 study, PO 100 mg/kg bid (0, 4 h) qdx3, 2 Gy ([…]) IR qdx3, Day 3",−2.87%
same,Max. body wt loss (%),"[4]; first Day 27 study, PO 100 mg/kg qdx3, 2 Gy ([…]) IR qdx3, Day 2",−3.68%
same,Max. body wt loss (%),"[4]; second Day 27 study, PO 10 mg/kg bid (0, 4 h) qdx3, 2 Gy ([…]) IR qdx3, Day 2",−5.81%
same,Max. body wt loss (%),"[4]; second Day 27 study, PO 25 mg/kg bid (0, 4 h) qdx3, 2 Gy ([…]) IR qdx3, Day 3",−5.70%
same,Max. body wt loss (%),"[4]; second Day 27 study, PO 50 mg/kg bid (0, 4 h) qdx2, 2 Gy ([…]) IR qdx3, Day 3",−2.87%
same,Max. body wt loss (%),"[4]; second Day 27 study, PO 50 mg/kg bid (0, 4 h) qdx3, 2 Gy ([…]) IR qdx3, Day 2",−3.68%
same,Max. body weight loss (%),"[5]; PO 100 mg/kg bid (0, 4 h) qd7x2, 2 Gy IR qd7x2 ([…]), Day 1",−3.50%
same,Max. body weight loss (%),"[5]; PO 100 mg/kg bid (0, 4 h) qd7x 2, no IR, Day 8",−1.70%
same,% T/Ti (Day 34),"[6]; Compound (1) PO 100 mg/kg bid (0, 4 h) qdx3, 2 Gy IR ([…]) focused",−2.8%
same,% T/C (Day 34),"[6]; Compound (1) PO 100 mg/kg qdx3, no IR",95.6%
same,tumors additive or synergistic / tumors tested,primary human tumors; Compound (1) (10× and 30× IC50) with bleomycin or radiation,29/29
same,tumors with additivity / tumors tested,primary human tumors; Compound (1) with 5-FU,5/5
same,tumors with strong synergy / tumors tested,primary human tumors; Compound (1) with bleomycin,9/29
same,tumors with synergy or additivity / tumors tested,primary human tumors; Compound (1) with carboplatin,5/5
same,tumors with antagonism,primary human tumors; Compound (1) with cisplatin,one tumor showed antagonism
same,tumors with synergy or additivity / tumors tested,primary human tumors; Compound (1) with cisplatin,9/10
same,tumors with additivity / tumors tested,primary human tumors; Compound (1) with doxorubicin,1/1
same,tumors with strong synergy / tumors tested,primary human tumors; Compound (1) with etoposide,4/4
same,tumors with additivity / tumors tested,primary human tumors; Compound (1) with gemcitabine,2/4
same,tumors with antagonism / tumors tested,primary human tumors; Compound (1) with gemcitabine,2/4
same,tumors with additivity / tumors tested,primary human tumors; Compound (1) with paclitaxel,1/5
same,tumors with antagonism / tumors tested,primary human tumors; Compound (1) with paclitaxel,1/5
same,tumors with strong synergy / tumors tested,primary human tumors; Compound (1) with radiation,3/8
same,Max. body wt loss (%),[7],−2.40%
